Counter-ions that a name gives are not always drawn.

The subject of data set [1] is B16 melanoma cells. The data set is described as follows: Cytotoxicity assay for murine cancer cells (MTT). Format: cell-based. As to conditions: Mus musculus, 48 h exposure. How it is done:
Murine B16 melanoma cells, Lewis lung carcinoma cells and colon 26 carcinoma cells were grown in DMEM medium containing 2 mM L-glutamine, 10% foetal bovine serum, 100 U/mL penicillin and 100 μg/mL streptomycin (37° C., 5% CO2). […] Exponentially growing cells were plated onto 96-well plates at 5000 cells per well in 100 μL of culture medium. 24 h after plating, 100 μl of medium containing the tested compound at final concentrations ranging from 0.01 to 100 μM were added to the wells (in triplicate) containing the cells, and incubated for 48 h at 37° C. and 5% CO2. After the 48 h exposure period to the test compounds, cell viability was assayed using the MTT (methylthiazoletetrazolium) test (Scudiero et al., Cancer Res. 1988, 48, 4827-4833) and absorbance was read at 562 nm in a microplate reader (BioKinetics Reader, EL340). Appropriate controls with DMEM only and MTT were run to subtract background absorbance.

The subject of data set [2] is tubulin. As to the kind of experiment: Tubulin polymerization inhibition assay (DAPI fluorescence). It is filed as biochemical. As to conditions: for Inhibition of tubulin polymerization at 30 μM: IC50 ND; for IC50: tubulin 1 mg/ml, DAPI, read-out: IPT (inhibition of tubulin polymerization) IC50. The source says:
Fluorescence was then read at the excitation wavelength of 360 nm and emission of 450 nm.

Data set [3] relates to EAhy 926 endothelial cell line. As to the kind of experiment: Endothelial cell morphology evaluation (rounding up). As to conditions: Homo sapiens, EA.hy 926; 2 h incubation; rounding up of more than 15% of cells; read-out: Cmarr EA.hy 926: lowest concentration at which cell rounding up was observed. It is filed as cell-based. The text has this: To assess the effects of the compounds on the morphology of endothelial cells, the EAhy 926 endothelial cell line was used, which is derived from the fusion of human umbilical vein endothelial cells (HUVEC) with the permanent human cell line A549 (Edgell et al, Proc. Natl. Acad. Sci. U.S.A., 1983, vol 80, issue 12, 3734-3737). The EAhy 926 cell line is considered as a good representative of native HUVEC because it expresses most of the biochemical markers of parental HUVEC (Bouis et al., Angiogenesis., 2001, 4, 91-102). EAhy 926 cells were grown in DMEM containing 2 mM L-glutamine, 10% foetal bovine serum, 100 U/mL penicillin and 100 μg/mL streptomycin in a humidified atmosphere (37° C., 5% CO2). Exponentially growing EAhy 926 cells were plated onto 96 well plates at 5000 cells/100 μL/well. Twenty-four hours after plating, the medium was aspirated, and 100 μL of medium containing the test compound was added to the well containing the cells (in triplicate) and incubated for 2 h (37° C., 5% CO2). The highest concentration used was 100 μM followed by serial two-fold dilutions down to low nanomolar concentrations, if needed for the most morphologically active compounds. After the 2 h-incubation period, digital photographs were taken of representative centre areas of each well at a magnification of 100× and 200×. The results are presented as the minimum concentration that could elicit the rounding up of more than 15% of cells in a field in order to exclude normal mitotic cells which is less that 15% in control 1% DMSO treated cells. Triplicate concentrations on the same plate were routinely carried out. CA4 was included in the experiments as a positive internal standard.
Compounds of the invention were first tested on EAhy 926 endothelial cells, which are transformed HUVEC (human umbilical vein endothelial cells). These cells undergo a rounding up upon a short 2 hour exposure to vascular disrupting agents, e.g. combretastatin A4.

`O=C1CCCc2nc3cc4c(cc3c(Cl)c21)OCO4` [SGR 306] displayed a concentration for half-maximal inhibition (IC50) in data set [1] above 100 µM. Besides, the “Inhibition of tubulin polymerization at 30 μM” value (“Inhibition” for short) in data set [2] is listed as “ND (3% à 30 μM)”. In addition, the minimal effective concentration in data set [3] was determined as 12.5 µM. Consider `COc1ccc(Nc2c3c(nc4cc5c(cc24)OCO5)CCC3=O)cc1OC` (as salt: hydrochloride) [SGR 359•HCl, 6,7-(Methylenedioxy)-9-(3,4-dimethoxyphenylamino)-2,3-dihydro-1H-cyclopenta[b]quinolin-1-one, hydrochloride], for which the melting point was 256 °C.

In the case of `COc1cc([C@@H]2c3cc4c(cc3[C@H](O)[C@H]3COC(=O)[C@H]23)OCO4)cc(OC)c1OC` [podophyllotoxin], the half-inhibitory concentration (IC50) in data set [2] stood at […].

Molecule `COc1cc(Nc2c3c(nc4cc5c(cc24)OCO5)CCC3=O)cc(OC)c1OC` (as salt: hydrochloride) [SGR 358•HCl, 6,7-(Methylenedioxy)-9-(3,4,5-trimethoxyphenylamino)-2,3-dihydro-1H-cyclopenta[b]quinolin-1-one, hydrochloride] had a melting point of 267 °C. Same read-out and setting: to `COc1cccc(Nc2c3c(nc4cc5c(cc24)OCO5)CCCC3=O)c1` (as salt: hydrochloride) [SGR 356•HCl, 6,7-(Methylenedioxy)-9-(3-methoxyphenylamino)-3,4-dihydroacridin-1(2H)-one, hydrochloride] belongs 258 °C; to `COc1cc(Nc2c3c(nc4cc(C)c(C)cc24)CCCC3=O)cc(OC)c1OC` (as salt: hydrochloride) [SGR 364•HCl, 6,7-(Dimethyl)-9-(3,4,5-trimethoxyphenylamino)-3,4-dihydroacridin-1(2H)-one, hydrochloride], 216 °C. Turning to `COc1cc(Nc2c3c(nc4cc5c(cc24)OCO5)COC3=O)cc(OC)c1OC` [SGR 231, reference compound], the IC50 in data set [1] is 0.4 µM; in data set [2], 0.42 µM. In data set [3], the minimal effective concentration came to 1.95 µM. With `COc1cc(Nc2c3c(nc4cc5c(cc24)OCO5)CCC3=O)cc(OC)c1OC` [SGR 358•HCl, 6,7-(Methylenedioxy)-9-(3,4,5-trimethoxyphenylamino)-2,3-dihydro-1H-cyclopenta[b]quinolin-1-one, hydrochloride], the IC50 in data set [1] was determined as 1.01 µM. Also, the minimal effective concentration in data set [3] was found to be 0.25 µM. Turning to `COc1cc(Nc2c3c(nc4cc5c(cc24)OCO5)CCC=C3)cc(OC)c1OC` [SGR 309], the IC50 in data set [1] was 11 µM; in data set [2] it was 18.2 µM. The minimal effective concentration in data set [3] came to 3.13 µM. With `COc1cc(Nc2c3c(nc4cc5c(cc24)OCCO5)CCCC3=O)cc(OC)c1OC` [SGR 360•HCl, 6,7-(Ethylenedioxy)-9-(3,4,5-trimethoxyphenylamino)-3,4-dihydroacridin-1(2H)-one, hydrochloride], the half-maximal inhibitory concentration (IC50) in data set [1] was found to be 8.1 µM. The minimal effective concentration in data set [3] is 0.06 µM. On the same counts, the results for `O=C1CCCc2nc3cc4c(cc3c(Nc3ccc5c(c3)OCO5)c21)OCO4` [SGR 355•HCl, 6,7-(Methylenedioxy)-9-(3,4-methylenedioxyphenyl-amino)-3,4-dihydroacridin-1(2H)-one, hydrochloride] are 17.4 µM and 100 µM. `COc1cc(Nc2c3c(nc4cc5c(cc24)OCO5)CCCC3O)cc(OC)c1OC` (stereo not drawn) [SGR 308] yielded an IC50 in data set [1] of 29.5 µM. In addition, the “Inhibition” value in data set [2] was “ND (31% à 30 μM)”. Further, the minimal effective concentration in data set [3] worked out at 25 µM. The molecule `COc1cc(Nc2c3c(nc4cc5c(cc24)OCCO5)CCCC3=O)cc(OC)c1OC` (as salt: hydrochloride) [SGR 360•HCl, 6,7-(Ethylenedioxy)-9-(3,4,5-trimethoxyphenylamino)-3,4-dihydroacridin-1(2H)-one, hydrochloride] had a melting point of 266 °C. The same measure, in the same setting: to `COc1cc(Nc2c3c(nc4cc5c(cc24)OCCO5)CCCC3=O)cc(OC)c1` (as salt: hydrochloride) [SGR 361•HCl, 6,7-(Ethylenedioxy)-9-(3,5-dimethoxyphenylamino)-3,4-dihydroacridin-1(2H)-one, hydrochloride] belongs 254 to 255 °C. In data set [1], `O=C1CCCc2nc3cc4c(cc3cc21)OCO4` [SGR 304] displayed a 50% inhibitory concentration (IC50) above 100 µM. The “Inhibition” value in data set [2] is “ND (33% à 30 μM)”. Also, the minimal effective concentration in data set [3] is above 100 µM. Consider `COc1cc(Nc2c3c(nc4cc5c(cc24)OCO5)CCCC3=O)cc(OC)c1` (as salt: hydrochloride) [SGR 363•HCl, 6,7-(Methylenedioxy)-9-(3,5-dimethoxyphenylamino)-3,4-dihydroacridin-1(2H)-one, hydrochloride], for which the melting point amounted to 256 °C. `COc1ccc(Nc2c3c(nc4cc5c(cc24)OCO5)CCC3=O)cc1OC` [SGR 359•HCl, 6,7-(Methylenedioxy)-9-(3,4-dimethoxyphenylamino)-2,3-dihydro-1H-cyclopenta[b]quinolin-1-one, hydrochloride]: the midpoint of inhibition in data set [1], the IC50, lay at 17.4 µM. Also, in data set [3], the minimal effective concentration amounted to 25 µM.

Turning to `COc1cc(CNc2c3c(nc4cc5c(cc24)OCO5)CCCC3=O)cc(OC)c1OC.Cl` [SGR 357•HCl], the IC50 in data set [1] amounted to 8.9 µM. Further, in data set [2], the “Inhibition” value was “ND (18% à 30 μM)”. In addition, in data set [3], the minimal effective concentration stood at 25 µM.

Take `O=C1CCCc2nc3cc4c(cc3c(Nc3ccc5c(c3)OCO5)c21)OCO4` (as salt: hydrochloride) [SGR 355•HCl, 6,7-(Methylenedioxy)-9-(3,4-methylenedioxyphenyl-amino)-3,4-dihydroacridin-1(2H)-one, hydrochloride]: the melting point was 260 °C. Consider `COc1cc(NC2=C3C(=O)OCC3N(C)c3cc4c(cc32)OCO4)cc(OC)c1OC` (stereo not drawn) [SGR 230, reference compound], for which the IC50 in data set [1] amounted to 38.4 µM; in data set [2], 1.04 µM. The minimal effective concentration in data set [3] amounted to 0.12 µM. In data set [1], `COc1cc(Nc2c3c(nc4cc(C)c(C)cc24)CCCC3=O)cc(OC)c1OC` [SGR 364•HCl, 6,7-(Dimethyl)-9-(3,4,5-trimethoxyphenylamino)-3,4-dihydroacridin-1(2H)-one, hydrochloride] registered an IC50 of 12.6 µM. Moreover, in data set [3], the minimal effective concentration came out at 6.25 µM. With `COc1ccc(/C=C\c2cc(OC)c(OC)c(OC)c2)cc1O` [combretastatin A4, reference compound], the concentration for half-maximal inhibition (IC50) in data set [2] is […]. `COc1cccc(Nc2c3c(nc4cc5c(cc24)OCO5)CCCC3=O)c1` [SGR 356•HCl, 6,7-(Methylenedioxy)-9-(3-methoxyphenylamino)-3,4-dihydroacridin-1(2H)-one, hydrochloride]: in data set [1], the IC50 is above 100 µM. Moreover, the minimal effective concentration in data set [3] amounted to 50 µM. `O=C1CCCc2c1cc1cc3c(cc1[n+]2[O-])OCO3` [SGR 305] yielded a half-inhibitory concentration (IC50) in data set [1] above 100 µM. In addition, the “Inhibition” value in data set [2] was “ND (22% à 30 μM)”. Moreover, the minimal effective concentration in data set [3] is above 100 µM. In data set [1], `COc1cc(Nc2c3c(nc4cc5c(cc24)OCO5)CCCC3=O)cc(OC)c1` [SGR 363•HCl, 6,7-(Methylenedioxy)-9-(3,5-dimethoxyphenylamino)-3,4-dihydroacridin-1(2H)-one, hydrochloride] registered a half-inhibitory concentration (IC50) of 1.4 µM. Moreover, the minimal effective concentration in data set [3] amounted to 0.06 µM.

As usually defined, the IC50 is the concentration that gives 50% inhibition. Usually melting point stands for the temperature of the solid-liquid transition.

The record behind these values is US9783547B2, “Water soluble 4-azapodophyllotoxin analogs” (CENTRE NATIONAL DE LA RECHERCHE SCIENTIFIQUE (CNRS), priority 2014, dated 2017).
